# Source: ChEMBL document CHEMBL1158363, “Circular dichroism studies of type III collagen mimetic peptides with anti- or pro-aggregant activities on human platelets” (2009)
# The source made the active and inactive calls. The rule behind the calls is not given here. Where a SMILES comes first, the peptide text is derived from it. [ ]: non-standard residue; d: D form. Hyp = O=C(O)[C@@H]1C[C@@H](O)CN1
# Test system: Platelet
# Assay: Inhibition of type III collagen-induced platelet aggregation in human platelet rich plasma at 1 mM
# Assay type: functional
smiles,measurement,value
C[C@H](NC(=O)[C@@H]1C[C@@H](O)CN1C(=O)[C@H](CCC(=O)O)NC(=O)CNC(=O)[C@@H]1C[C@@H](O)CN1C(=O)[C@@H](N)CCCCN)C(=O)N1CCC[C@H]1C(=O)N[C@@H](CCCCN)C(=O)O (H-K[Hyp]GE[Hyp]APK-OH),inhibition at 1000 µM,72.1%
NCCCC[C@H](NC(=O)[C@@H]1CCCN1C(=O)CNC(=O)[C@@H]1C[C@@H](O)CN1C(=O)[C@H](CCC(=O)O)NC(=O)CNC(=O)[C@@H]1C[C@@H](O)CN1C(=O)[C@@H](N)CCCCN)C(=O)O (H-K[Hyp]GE[Hyp]GPK-OH),inhibition at 1000 µM,86.1%
C[C@H](NC(=O)[C@@H]1C[C@@H](O)CN1C(=O)[C@@H](N)CCCCN)C(=O)N[C@@H](CCC(=O)O)C(=O)N1C[C@H](O)C[C@H]1C(=O)N[C@@H](C)C(=O)N1CCC[C@H]1C(=O)N[C@@H](CCCCN)C(=O)O (H-K[Hyp]AE[Hyp]APK-OH),inhibition,inactive
NCCCC[C@H](NC(=O)[C@H](CCCCN)NC(=O)[C@@H]1C[C@@H](O)CN1C(=O)[C@@H]1C[C@@H](O)CN1)C(=O)N[C@@H](CCC(=O)O)C(=O)N1CCC[C@H]1C(=O)NCC(=O)NCC(=O)O (H-[Hyp][Hyp]KKEPGG-OH),inhibition,inactive
